Legend:
[1] = test system: antibodies in sera from SARS patients (sera 1a, 1b, 2, 6, 37, 62, London, SARS-yellow, SARS-green); format: binding, human; design: Binding of serum 6 to linear peptides of protein X1 of SARS-CoV Urbani / Binding of serum 37 to linear peptides of protein X1 of SARS-CoV Urbani / Binding of serum 6 to looped/cyclic peptide (PEPSCAN-ELISA) / Binding of serum 37 to looped/cyclic peptide (PEPSCAN-ELISA) / Binding of serum 37 to looped/cyclic peptides of protein X1 of SARS-CoV Urbani / Binding of serum 6 to linear peptides of protein X2 / Binding of serum 37 to linear peptides of protein X2 / Binding of serum 37 to looped/cyclic peptides of protein X2 of SARS-CoV Urbani / Binding of serum 6 to linear peptides of protein M of SARS-CoV Urbani / Binding of serum 37 to linear peptides of protein M of SARS-CoV Urbani / Binding of serum 6 to looped/cyclic peptides of protein M of SARS-CoV Urbani / Binding of serum 37 to looped/cyclic peptides of protein M of SARS-CoV Urbani / Binding of serum 6 to linear peptides of protein X3 of SARS-CoV Urbani / Binding of serum 37 to linear peptides of protein X3 of SARS-CoV Urbani / Binding of serum 37 to looped/cyclic peptides of protein X3 of SARS-CoV Urbani / Binding of serum 6 to linear peptides of protein X4 of SARS-CoV Urbani / Binding of serum 37 to linear peptides of protein X4 of SARS-CoV Urbani / Binding of serum 37 to looped/cyclic peptides of protein X4 of SARS-CoV Urbani / Binding of serum 6 to linear peptides of protein X5 of SARS-CoV Urbani / Binding of serum 37 to linear peptides of protein X5 of SARS-CoV Urbani / Binding of serum 37 to looped/cyclic peptides of protein X5 of SARS-CoV Urbani / Binding of serum 6 to linear peptides of protein N of SARS-CoV Urbani / Binding of serum 37 to linear peptides of protein N of SARS-CoV Urbani / Binding of serum 6 to linear peptide (PEPSCAN-ELISA) / Binding of serum 1a to looped/cyclic peptides of protein N of SARS-CoV Urbani / Binding of serum 1b to looped/cyclic peptides of protein N of SARS-CoV Urbani / Binding of serum 2 to looped/cyclic peptides of protein N of SARS-CoV Urbani / Binding of serum 6 to looped/cyclic peptides of protein N of SARS-CoV Urbani / Binding of serum 37 to looped/cyclic peptides of protein N of SARS-CoV Urbani / Binding of serum 62 to looped/cyclic peptides of protein N of SARS-CoV Urbani / Binding of serum London to looped/cyclic peptides of protein N of SARS-CoV Urbani / Binding of serum SARS-green to looped/cyclic peptides of protein N of SARS-CoV Urbani: unit not given here
[2] = test system: rabbit serum obtained by immunizing a rabbit with the SARS-CoV strain Frankfurt 1; format: binding; design: Binding of a rabbit serum to linear peptides / Binding of a rabbit serum to looped peptides / Rabbit serum linear peptides / Rabbit serum looped peptides / Binding of a rabbit serum to linear peptides of protein N of SARS-CoV Urbani (Rabbit serum linear peptides) / Binding of a rabbit serum to looped/cyclic peptides of protein N of SARS-CoV Urbani (Rabbit serum looped peptides): unit not given here
[3] = test system: control sera (pooled serum of ten healthy LUMC hospital workers; commercial negative donor pooled serum from the Dutch bloodbank); format: binding, human; design: Binding of Control serum LUMC to linear peptides / Binding of Control serum Blood-bank to linear peptides / Binding of Control serum LUMC to looped peptides / Binding of Control Serum Blood-Bank to Looped peptides / Binding of Control serum LUMC to linear peptides of the protein M of SARS-CoV Urbani / Binding of Control serum Blood-bank to linear peptides of the protein M of SARS-CoV Urbani / Binding of Control serum LUMC to looped peptides of the protein M of SARS-CoV Urbani / Binding of Control Serum Blood-Bank to Looped peptides of the protein M of SARS-CoV Urbani: unit not given here

## CRIIMRCWLCWKCKS
[1]
  Binding of serum 1a to looped/cyclic peptide (PEPSCAN-ELISA): 0.5
  Binding of serum 1b to looped/cyclic peptide (PEPSCAN-ELISA): 0.4
  Binding of serum 2 to looped/cyclic peptide (PEPSCAN-ELISA): 0.5
  Binding of serum 6 to looped/cyclic peptide (PEPSCAN-ELISA): 0.5
  Binding of serum 37 to looped/cyclic peptide (PEPSCAN-ELISA): 0.6
  Binding of serum 62 to looped/cyclic peptide (PEPSCAN-ELISA): 0.6
  Binding of serum London to looped/cyclic peptide (PEPSCAN-ELISA): 0.4
  Binding of serum SARS-green to looped/cyclic peptide (PEPSCAN-ELISA): 0.2
  Binding of serum SARS-yellow to looped/cyclic peptide (PEPSCAN-ELISA): 0.4
  Recognition of the peptide by sera of SARS-CoV infected individuals, and form (linear, looped/cyclic) in which it is recognized: recognized in linear form
[2]
  Binding of a rabbit serum to linear peptides: 0.1
  Binding of a rabbit serum to looped peptides: 0.7
[3]
  Binding of Control Serum Blood-Bank to Looped peptides: 0.7
  Binding of Control serum Blood-bank to linear peptides: 0.4
  Binding of Control serum LUMC to linear peptides: 0.3
  Binding of Control serum LUMC to looped peptides: 0.7

## PLQASLPFGWLVIGV
[1]
  Binding of serum 1a to linear peptides of protein X1 of SARS-CoV Urbani: 0.8
  Binding of serum 1a to looped/cyclic peptide (PEPSCAN-ELISA): 0.5
  Binding of serum 1b to linear peptides of protein X1 of SARS-CoV Urbani: 0.5
  Binding of serum 1b to looped/cyclic peptide (PEPSCAN-ELISA): 0.3
  Binding of serum 2 to linear peptides of protein X1 of SARS-CoV Urbani: 0.5
  Binding of serum 2 to looped/cyclic peptide (PEPSCAN-ELISA): 0.4
  Binding of serum 6 to linear peptides of protein X1 of SARS-CoV Urbani: 0.5
  Binding of serum 6 to looped/cyclic peptide (PEPSCAN-ELISA): 0.4
  Binding of serum 37 to linear peptides of protein X1 of SARS-CoV Urbani: 0.7
  Binding of serum 37 to looped/cyclic peptide (PEPSCAN-ELISA): 0.5
  Binding of serum 62 to linear peptides of protein X1 of SARS-CoV Urbani: 0.7
  Binding of serum 62 to looped/cyclic peptide (PEPSCAN-ELISA): 0.7
  Binding of serum London to linear peptides of protein X1 of SARS-CoV Urbani: 0.3
  Binding of serum London to looped/cyclic peptide (PEPSCAN-ELISA): 0.2
  Binding of serum SARS-green to linear peptides of protein X1 of SARS-CoV Urbani: 0.4
  Binding of serum SARS-green to looped/cyclic peptide (PEPSCAN-ELISA): 0.3
  Binding of serum SARS-yellow to linear peptides of protein X1 of SARS-CoV Urbani: 0.6
  Binding of serum SARS-yellow to looped/cyclic peptide (PEPSCAN-ELISA): 0.4
[2]
  Binding of a rabbit serum to linear peptides: 0.1
  Binding of a rabbit serum to looped peptides: 0.4
[3]
  Binding of Control Serum Blood-Bank to Looped peptides: 0.7
  Binding of Control serum Blood-bank to linear peptides: 0.8
  Binding of Control serum LUMC to linear peptides: 0.9
  Binding of Control serum LUMC to looped peptides: 0.5

## NRNRFLYIIKLVFLW
[1]
  Binding of serum 1a to linear peptides of protein M of SARS-CoV Urbani: 0.7
  Binding of serum 1b to linear peptides of protein M of SARS-CoV Urbani: 0.4
  Binding of serum 2 to linear peptides of protein M of SARS-CoV Urbani: 0.6
  Binding of serum 6 to linear peptides of protein M of SARS-CoV Urbani: 0.3
  Binding of serum 37 to linear peptides of protein M of SARS-CoV Urbani: 0.7
  Binding of serum 62 to linear peptides of protein M of SARS-CoV Urbani: 0.7
  Binding of serum London to linear peptides of protein M of SARS-CoV Urbani: 0.3
  Binding of serum SARS-green to linear peptides of protein M of SARS-CoV Urbani: 0.3
  Binding of serum SARS-yellow to linear peptides of protein M of SARS-CoV Urbani: 0.1
  Recognition of the peptide by sera of SARS-CoV infected individuals, and form (linear, looped/cyclic) in which it is recognized: recognized in looped/cyclic form
[2]
  Rabbit serum linear peptides: 0.5
  Rabbit serum looped peptides: 0.4
[3]
  Binding of Control Serum Blood-Bank to Looped peptides of the protein M of SARS-CoV Urbani: 0.8
  Binding of Control serum Blood-bank to linear peptides of the protein M of SARS-CoV Urbani: 0.7
  Binding of Control serum LUMC to linear peptides of the protein M of SARS-CoV Urbani: 0.4
  Binding of Control serum LUMC to looped peptides of the protein M of SARS-CoV Urbani: 0.7

From US20070128217A1 (priority 2003, published 2007)
